# Key:
# PIKFYVE [1] = biological target: T1, PIKFYVE (Homo sapiens, UniProt Q9Y2I7); assay: Cell-based Pikfyve inhibition activity assay (EEA1 staining, mean vesicle size in BJ fibroblast cells); conditions: Table 4, 4 hours treatment, 3 μM Apilimod = 100% inhibition
# Outline: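 BJ fibroblasts treated 4 h at 37° C with eleven 3-fold doses (0.03-3000 nM), then fixed and stained for EEA1. Confocal images (20×, 16 tiles/well) analysed for mean vesicle size. Normalised to 0.5% DMSO (0%) and 3 μM apilimod (100%); dose-response fitted with variable slope.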
# PIKFYVE [2] = biological target: T1, PIKFYVE; assay: PIKFYVE assay (luciferase ADP-Glo kinase assay, Promega); format: biochemical
# Outline: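 Kinase activity measured with a luciferase-based ADP-Glo read-out, which quantifies ADP formed by the enzyme.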
# T1 sequence (Q9Y2I7 whole entry): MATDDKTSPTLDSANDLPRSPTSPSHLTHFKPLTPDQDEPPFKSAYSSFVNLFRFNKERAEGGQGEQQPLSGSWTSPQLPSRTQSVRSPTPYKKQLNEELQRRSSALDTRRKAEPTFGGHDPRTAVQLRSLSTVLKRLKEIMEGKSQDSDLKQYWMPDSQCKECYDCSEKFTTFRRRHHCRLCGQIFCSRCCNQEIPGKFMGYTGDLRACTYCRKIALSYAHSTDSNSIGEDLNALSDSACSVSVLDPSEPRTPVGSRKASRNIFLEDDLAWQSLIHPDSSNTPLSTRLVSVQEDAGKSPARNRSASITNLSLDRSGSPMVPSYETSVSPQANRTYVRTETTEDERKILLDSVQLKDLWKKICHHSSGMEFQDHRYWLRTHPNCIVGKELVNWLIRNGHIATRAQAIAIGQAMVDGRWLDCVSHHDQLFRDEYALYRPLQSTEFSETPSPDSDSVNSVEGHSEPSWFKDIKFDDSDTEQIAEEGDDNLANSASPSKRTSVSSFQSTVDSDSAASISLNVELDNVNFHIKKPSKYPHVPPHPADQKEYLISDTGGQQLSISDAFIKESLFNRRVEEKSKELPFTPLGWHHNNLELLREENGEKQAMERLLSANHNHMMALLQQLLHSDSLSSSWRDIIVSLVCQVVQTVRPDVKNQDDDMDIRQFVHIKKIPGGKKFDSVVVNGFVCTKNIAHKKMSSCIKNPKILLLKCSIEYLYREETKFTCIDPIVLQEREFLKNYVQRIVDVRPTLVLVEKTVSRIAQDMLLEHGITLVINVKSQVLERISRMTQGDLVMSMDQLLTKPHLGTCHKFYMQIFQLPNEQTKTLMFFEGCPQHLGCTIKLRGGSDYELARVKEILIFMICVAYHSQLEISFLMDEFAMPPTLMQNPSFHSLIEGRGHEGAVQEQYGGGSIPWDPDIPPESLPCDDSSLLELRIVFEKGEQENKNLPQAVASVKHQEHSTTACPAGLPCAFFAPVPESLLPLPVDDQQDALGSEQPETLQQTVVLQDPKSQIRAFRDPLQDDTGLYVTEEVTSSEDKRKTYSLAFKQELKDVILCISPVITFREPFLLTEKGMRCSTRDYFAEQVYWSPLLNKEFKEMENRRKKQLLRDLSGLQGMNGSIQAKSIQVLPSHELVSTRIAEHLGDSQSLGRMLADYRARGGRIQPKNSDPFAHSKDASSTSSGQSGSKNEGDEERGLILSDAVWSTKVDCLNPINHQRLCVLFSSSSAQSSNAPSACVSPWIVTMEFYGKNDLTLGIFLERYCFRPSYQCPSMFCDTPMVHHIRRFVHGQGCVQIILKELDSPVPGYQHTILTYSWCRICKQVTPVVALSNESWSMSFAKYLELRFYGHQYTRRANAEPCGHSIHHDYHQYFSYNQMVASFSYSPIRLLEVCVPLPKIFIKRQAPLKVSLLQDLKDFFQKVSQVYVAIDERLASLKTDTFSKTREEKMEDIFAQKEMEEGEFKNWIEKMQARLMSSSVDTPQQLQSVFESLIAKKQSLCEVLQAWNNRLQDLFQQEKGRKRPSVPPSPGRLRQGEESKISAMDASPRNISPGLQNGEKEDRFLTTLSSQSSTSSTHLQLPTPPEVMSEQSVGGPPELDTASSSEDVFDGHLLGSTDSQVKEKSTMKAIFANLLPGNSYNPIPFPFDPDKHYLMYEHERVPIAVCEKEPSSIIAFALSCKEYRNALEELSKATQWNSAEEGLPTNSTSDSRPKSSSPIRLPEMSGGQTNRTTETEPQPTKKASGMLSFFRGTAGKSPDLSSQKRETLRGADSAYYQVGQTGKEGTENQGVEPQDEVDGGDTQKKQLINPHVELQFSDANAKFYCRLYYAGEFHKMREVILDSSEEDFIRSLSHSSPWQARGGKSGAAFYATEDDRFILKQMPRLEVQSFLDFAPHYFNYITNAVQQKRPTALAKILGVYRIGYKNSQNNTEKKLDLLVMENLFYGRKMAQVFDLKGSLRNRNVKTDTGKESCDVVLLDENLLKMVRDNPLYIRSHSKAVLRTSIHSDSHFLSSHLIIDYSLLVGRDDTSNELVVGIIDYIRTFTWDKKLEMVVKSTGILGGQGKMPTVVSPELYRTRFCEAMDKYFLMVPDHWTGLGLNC
EC50 (PIKFYVE [1]) [nM],IC50 (PIKFYVE [2]; Table 3) [nM],IC50 (PIKFYVE [2]; Table 2) [nM],SMILES
100 to 500,3 to 10,,"Cc1cccc(-c2ccn(-c3cc(N4CCOCC4)nc(OCCO)n3)n2)c1 [Compound 121, 2-((4-morpholino-6-(3-(m-tolyl)-1H-pyrazol-1-yl)pyrimidin-2-yl)oxy)ethan-1-ol]"
100 to 500,< 3,,"Cc1cccc(-c2ccn(-c3cc(N4CCOCC4)nc(OCCn4cnc(CO)c4)n3)n2)c1 [Compound 116, (1-(2-((4-morpholino-6-(3-(m-tolyl)-1H-pyrazol-1-yl)pyrimidin-2-yl)oxy)ethyl)-1H-imidazol-4-yl)methanol]"
20 to 100,< 3,,"Cc1cccc(-c2ccn(-c3cc(N4CCOCC4)nc(CCC(O)c4cnn(C)c4)n3)n2)c1 (centres unmarked) [Compound 231, 1-(1-methyl-1H-pyrazol-4-yl)-3-(4-morpholino-6-(3-(m-tolyl)-1H-pyrazol-1-yl)pyrimidin-2-yl)propan-1-ol]"
100 to 500,,< 5,"CC(=O)c1nc(N2CCOCC2)cc(-n2ccc(-c3cccc(C)c3)n2)n1 [Compound 88, 1-(4-morpholino-6-(3-(m-tolyl)-1H-pyrazol-1-yl)pyrimidin-2-yl)ethan-1-one]"
100 to 500,,< 5,"Cn1cc(C(O)CCc2nc(N3CCOCC3)cc(-n3ccc(-c4ccccc4)n3)n2)cn1 (centres unmarked) [Compound 79, 1-(1-methyl-1H-pyrazol-4-yl)-3-(4-morpholino-6-(3-phenyl-1H-pyrazol-1-yl)pyrimidin-2-yl)propan-1-ol]"
20 to 100,< 3,,"Cc1cccc(-c2ccn(-c3cc(N4CCOCC4)nc(OCCc4cn(C)cn4)n3)n2)c1 [Compound 118, 4-(2-(2-(1-methyl-1H-imidazol-4-yl)ethoxy)-6-(3-(m-tolyl)-1H-pyrazol-1-yl)pyrimidin-4-yl)morpholine]"
< 20,< 3,,"Cc1cccc(-c2cc([C@H](C)O)n(-c3cc(N4CCOCC4)nc(OCCc4cnn(C)c4)n3)n2)c1 (single isomer, unassigned) [Compound 313]"
500 to 5000,3 to 10,,"Cn1cc(COCc2nc(N3CCOCC3)cc(-n3ccc(-c4ccccc4)n3)n2)cn1 [Compound 298, 4-(2-(((1-methyl-1H-pyrazol-4-yl)methoxy)methyl)-6-(3-phenyl-1H-pyrazol-1-yl)pyrimidin-4-yl)morpholine]"
20 to 100,,< 5,"Cc1cccc(-c2ccn(-c3cc(N4CCOCC4)nc(OC[C@@H](O)c4ccccc4)n3)n2)c1 (single isomer, unassigned) [Compound 57]"
500 to 5000,10 to 100,,"Cc1cccc(-c2ccn(-c3cc(N4CCOCC4)nc(O)n3)n2)c1 [Compound 106, 4-morpholino-6-(3-(m-tolyl)-1H-pyrazol-1-yl)pyrimidin-2-ol]"

# Second part, the compound before the results:
SMILES,EC50 (PIKFYVE [1]) [nM],IC50 (PIKFYVE [2]; Table 3) [nM],IC50 (PIKFYVE [2]; Table 2) [nM]
"c1ccc(-c2ccn(-c3cc(N4CCOCC4)nc(OCc4cccnn4)n3)n2)cc1 [Compound 114, 4-(6-(3-phenyl-1H-pyrazol-1-yl)-2-(pyridazin-3-ylmethoxy)pyrimidin-4-yl)morpholine]",100 to 500,3 to 10,
"Cc1cccc(-c2ccn(-c3cc(N4CCOCC4)n4ncc(C)c4n3)n2)c1 [Compound 337, 4-(3-methyl-5-(3-(m-tolyl)-1H-pyrazol-1-yl)pyrazolo[1,5-a]pyrimidin-7-yl)morpholine]",500 to 5000,10 to 100,
"Cc1cc(-c2c[nH]c3ccccc23)nn1-c1cc(N2CCOCC2)nc(C2COCCO2)n1 (single isomer, unassigned) [Compound 344]",< 20,< 3,
COC(=O)c1ccn(-c2cc(N3CCOCC3)nc(OCCc3cnn(C)c3)n2)n1 [Compound 70],> 5000,,5 to 100
"COCc1cc(-c2ccccc2)nn1-c1cc(N2CCOCC2)nc(OCCc2cnn(C)c2)n1 [Compound 217, 4-(6-(5-(methoxymethyl)-3-phenyl-1H-pyrazol-1-yl)-2-(2-(1-methyl-1H-pyrazol-4-yl)ethoxy)pyrimidin-4-yl)morpholine]",20 to 100,< 3,
"Cn1cc(CCOc2nc(N3CCOCC3)cc(-n3ccc(-c4c[nH]c5ccccc45)n3)n2)cn1 [Compound 203, 4-(6-(3-(1H-indol-3-yl)-1H-pyrazol-1-yl)-2-(2-(1-methyl-1H-pyrazol-4-yl)ethoxy)pyrimidin-4-yl)morpholine]",100 to 500,10 to 100,
"CO[C@H](CO)c1nc(N2CCOCC2)cc(-n2nc(-c3csc4ccccc34)cc2C)n1 [Compound 278, (S)-2-(4-(3-(benzo[b]thiophen-3-yl)-5-methyl-1H-pyrazol-1-yl)-6-morpholinopyrimidin-2-yl)-2-methoxyethan-1-ol]",500 to 5000,< 3,
"Cc1cccc(-c2ccn(-c3cc(N4CCOCC4)nc(OCC(=O)C4CC4)n3)n2)c1 [Compound 109, 1-cyclopropyl-2-((4-morpholino-6-(3-(m-tolyl)-1H-pyrazol-1-yl)pyrimidin-2-yl)oxy)ethan-1-one]",20 to 100,3 to 10,
"CO[C@H](CO)c1nc(N2CCOCC2)cc(-n2ccc(-c3c[nH]c4ncccc34)n2)n1 [Compound 292, (S)-2-(4-(3-(1H-pyrrolo[2,3-b]pyridin-3-yl)-1H-pyrazol-1-yl)-6-morpholinopyrimidin-2-yl)-2-methoxyethan-1-ol]",20 to 100,10 to 100,
"Cc1cccc(-c2cc([C@@H](C)O)n(-c3cc(N4CCOCC4)nc(OCCc4cnn(C)c4)n3)n2)c1 (single isomer, unassigned) [Compound 314]",< 20,< 3,
Cc1cccc(-c2ccn(-c3cc(N4CCOCC4)nc(OCC(=O)c4ccccc4)n3)n2)c1 [Compound 169],100 to 500,10 to 100,
"COCc1cccc(-c2ccn(-c3cc(N4CCOCC4)nc([C@H](CO)OC)n3)n2)c1 [Compound 277, (R)-2-methoxy-2-(4-(3-(3-(methoxymethyl)phenyl)-1H-pyrazol-1-yl)-6-morpholinopyrimidin-2-yl)ethan-1-ol]",100 to 500,3 to 10,
"COC(C)(C)c1nc(N2CCOCC2)cc(-n2ccc(-c3cccc(C)c3)n2)n1 [Compound 347, 4-(2-(2-methoxypropan-2-yl)-6-(3-(m-tolyl)-1H-pyrazol-1-yl)pyrimidin-4-yl)morpholine]",100 to 500,3 to 10,
"CO[C@@H](CO)c1nc(N2CCOCC2)cc(-n2ccc(-c3c[nH]c4ncccc34)n2)n1 [Compound 293, (R)-2-(4-(3-(1H-pyrrolo[2,3-b]pyridin-3-yl)-1H-pyrazol-1-yl)-6-morpholinopyrimidin-2-yl)-2-methoxyethan-1-ol]",100 to 500,10 to 100,
"Cc1cccc(-c2ccn(-c3cc(N4CCOCC4)ncn3)n2)c1 [Compound 60, 4-(6-(3-(m-tolyl)-1H-pyrazol-1-yl)pyrimidin-4-yl)morpholine]",500 to 5000,,101 to 1000
"CO[C@@H](CO)c1nc(N2CCOCC2)cc(-n2ccc(-c3c[nH]c4ccccc34)n2)n1 (single isomer, unassigned) [Compound 319]",< 20,< 3,
"C#CCCCOc1nc(N2CCOCC2)cc(-n2ccc(-c3cccc(C)c3)n2)n1 [Compound 108, 4-(2-(pent-4-yn-1-yloxy)-6-(3-(m-tolyl)-1H-pyrazol-1-yl)pyrimidin-4-yl)morpholine]",20 to 100,3 to 10,
"COc1nc(N2CCOCC2)c(C)c(-n2ccc(-c3cccc(C)c3)n2)n1 [Compound 83, 4-(2-methoxy-5-methyl-6-(3-(m-tolyl)-1H-pyrazol-1-yl)pyrimidin-4-yl)morpholine]",> 5000,,101 to 1000

# — patent US20230135152A1 (ACURASTEM INCORPORATED, priority 2020, published 2023)
